Results on 1 compound are retold here after article PMC12799421, “Inhibition of constitutive activity of the atypical chemokine receptor 3 by the small-molecule inverse agonist VUF16840” (Molecular Pharmacology, 2025).

Format in all cases: cell-based
Assay [1] deals with panel of 19 human chemokine receptors. Description: NanoBiT-complementation based chemokine receptor screen (agonist and antagonist mode). The procedure: The pharmacological modulation of all chemokine receptors by VUF16840 was performed according to an established method.[8]^,[23]^,[39] Briefly, β-arrestin2 recruitment to chemokine receptors in response to 1 μM VUF16840 or positive control chemokines was monitored by NanoLuc complementation assay (NanoBiT, Promega). Four hours after transfection, cells were harvested, incubated for 25 minutes at 37 °C with furimazine and distributed into a white 96-well plates (1 × 10^5 cells per well). β-Arrestin2 recruitment was then detected for 20 minutes upon treatment with 1 μM VUF16840 (or increasing concentrations ligand for experiments with CC chemokine receptor [CCR3]) using the Mithras LB940 luminometer (Berthold Technologies). To evaluate the antagonist properties of VUF16840, full agonists of each receptor were added after the 20-minute incubation with VUF16840. Signal from wells treated with full agonist only was defined as 100% activity and signals from wells treated with no agonist were used to set 0% activity. […]
Fig. 4 Modulation of a panel of chemokine receptors by VUF16840. β-Arrestin2 recruitment toward a full panel of 19 chemokine receptor was measured using a NLuc complementation assay in HEK293T cells. […]

The target in another assay is T1, hCXCR4 (Homo sapiens, UniProt P61073).
T1 construct: The CXCR4-Rluc8 fusion protein corresponds to CXCR4 isoform b (NCBI: NM_003467.2); expressed in transfected cells; host or cells: HEK293T
T1 sequence (P61073 whole entry, the tested form may be a part, canonical isoform): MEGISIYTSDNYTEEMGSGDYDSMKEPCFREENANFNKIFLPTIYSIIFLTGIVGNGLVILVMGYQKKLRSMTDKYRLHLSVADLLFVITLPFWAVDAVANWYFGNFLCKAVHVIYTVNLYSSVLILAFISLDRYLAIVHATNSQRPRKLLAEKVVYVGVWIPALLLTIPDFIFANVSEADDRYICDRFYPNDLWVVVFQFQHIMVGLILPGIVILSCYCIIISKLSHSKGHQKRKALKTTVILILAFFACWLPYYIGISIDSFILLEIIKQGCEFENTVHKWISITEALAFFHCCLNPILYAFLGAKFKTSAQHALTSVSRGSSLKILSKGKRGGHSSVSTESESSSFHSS
The experiment in a line: BRET β-arrestin2 recruitment to hCXCR4 in HEK293T cells. As to conditions: in the presence or absence of 100 nM CXCL12. An excerpt: The NLuc-ACKR3 plasmid was a kind gift from Prof Hill (Nottingham University, Nottingham, United Kingdom),[31] […] The mVenus-CAAX and the hACKR3-NLuc constructs have been described by Zarca et al.[23] The sequence of the used ACKR3 constructs corresponds to National Center for Biotechnology Information (NCBI) database entry NM_020311.3. Radioligand binding studies used a mammalian expression vector pcDEF3 encoding ACKR3, N-terminally fused to an HA-tag and C-terminally fused to a triple Alanine tag (NotI). This construct was the template for the C-terminal ACKR3 fusion with the luminescent Rluc8 protein (NCBI: EF446136.1). The CXCR4-Rluc8 fusion protein corresponds to CXCR4 isoform b (NCBI: NM_003467.2) fused at the C-terminus with a triple Alanine linker (NotI) before the Rluc8 protein.
For 1·10^6 HEK293T cells, a transfection mix consisting of 2 μg plasmid DNA, 12 μg linear PEI in a total volume of 200 μL 150 mM NaCl was made and thoroughly vortexed. The transfection mix was incubated for 15 minutes and consequently added to a cell suspension with a final concentration of 3·10^5 cells/mL. […]
Fig. 2 VUF16840 inhibits constitutive as well as agonist induced β-arrestin2 recruitment to ACKR3. […] Subsequently, β-arrestin2 recruitment to hACKR3 was detected by NanoBiT complementation. […]

The next assay deals with T2, hACKR3-NLuc (Homo sapiens, UniProt P25106).
T2 construct: expressed in transfected cells; host or cells: HEK293T
T2 sequence (P25106 whole entry): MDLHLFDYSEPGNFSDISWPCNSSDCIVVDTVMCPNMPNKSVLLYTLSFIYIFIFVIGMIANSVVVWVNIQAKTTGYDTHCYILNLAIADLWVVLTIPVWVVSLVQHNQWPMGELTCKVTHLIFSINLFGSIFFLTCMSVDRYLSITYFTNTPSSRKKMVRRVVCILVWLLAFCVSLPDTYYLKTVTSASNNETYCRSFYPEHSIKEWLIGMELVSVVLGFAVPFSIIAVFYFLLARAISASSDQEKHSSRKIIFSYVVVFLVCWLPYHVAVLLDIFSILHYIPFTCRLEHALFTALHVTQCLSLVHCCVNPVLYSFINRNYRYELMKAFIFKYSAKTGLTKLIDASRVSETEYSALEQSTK
Description: Bystander BRET detection of ACKR3 membrane localization. Particulars: 1 μM VUF16840.

Another assay has as its target CCR3 (Homo sapiens, UniProt P51677). The experiment in a line: NanoBiT β-arrestin2 recruitment to CCR3, concentration-response. The method, then: The pharmacological modulation of all chemokine receptors by VUF16840 was performed according to an established method.[8]^,[23]^,[39] Briefly, β-arrestin2 recruitment to chemokine receptors in response to 1 μM VUF16840 or positive control chemokines was monitored by NanoLuc complementation assay (NanoBiT, Promega). Four hours after transfection, cells were harvested, incubated for 25 minutes at 37 °C with furimazine and distributed into a white 96-well plates (1 × 10^5 cells per well). β-Arrestin2 recruitment was then detected for 20 minutes upon treatment with 1 μM VUF16840 (or increasing concentrations ligand for experiments with CC chemokine receptor [CCR3]) using the Mithras LB940 luminometer (Berthold Technologies). To evaluate the antagonist properties of VUF16840, full agonists of each receptor were added after the 20-minute incubation with VUF16840. Signal from wells treated with full agonist only was defined as 100% activity and signals from wells treated with no agonist were used to set 0% activity.
Supplemental Figure 5 – Modulation of CCR3 receptor by VUF16840. Recruitment of β-arrestin2 towards CCR3 chemokine receptor was measured using a NLuc complementation assay in HEK293T cells. The concentration-dependent activation of the CCR3 was determined for VUF16840 and the endogenous agonist CCL13. All values depict the mean ± SD of ≥ 3 experiments.

CCR3, sequence (P51677 whole entry): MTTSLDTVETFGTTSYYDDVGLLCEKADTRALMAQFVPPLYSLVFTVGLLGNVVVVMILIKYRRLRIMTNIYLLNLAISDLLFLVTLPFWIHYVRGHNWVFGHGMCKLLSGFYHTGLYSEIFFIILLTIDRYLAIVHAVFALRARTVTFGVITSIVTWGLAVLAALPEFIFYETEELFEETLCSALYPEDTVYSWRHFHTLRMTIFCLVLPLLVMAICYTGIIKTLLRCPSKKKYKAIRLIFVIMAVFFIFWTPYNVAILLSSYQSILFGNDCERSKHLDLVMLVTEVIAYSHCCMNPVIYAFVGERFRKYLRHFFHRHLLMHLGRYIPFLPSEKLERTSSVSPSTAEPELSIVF
CCR3, sequence (P32121 whole entry partner): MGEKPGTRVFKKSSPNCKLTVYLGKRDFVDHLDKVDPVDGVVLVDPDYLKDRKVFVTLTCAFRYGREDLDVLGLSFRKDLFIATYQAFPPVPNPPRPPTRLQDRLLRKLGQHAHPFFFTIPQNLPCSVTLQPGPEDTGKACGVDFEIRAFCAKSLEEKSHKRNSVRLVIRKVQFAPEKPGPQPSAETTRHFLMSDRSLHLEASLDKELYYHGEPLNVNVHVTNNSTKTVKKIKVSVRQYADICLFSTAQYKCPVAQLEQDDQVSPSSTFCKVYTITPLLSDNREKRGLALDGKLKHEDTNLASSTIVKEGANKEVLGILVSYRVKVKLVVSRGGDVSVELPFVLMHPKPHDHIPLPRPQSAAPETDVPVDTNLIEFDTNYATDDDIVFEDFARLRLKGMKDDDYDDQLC
Description for hACKR3-NLuc: Ligand-induced receptor mobilization to the plasma membrane was monitored by bystander NanoBRET according to an established method.[36] For this assay, 5 × 10^6 HEK293T cells were seeded in 10-cm dishes and cotransfected with plasmids encoding ACKR3 C-terminally tagged with NLuc and mNeonGreen N-terminally tagged with the plasma membrane targeting sequence corresponding to the first 11 residues ([sequence]) of the human Lyn-kinase.[37] Twenty-four hours after transfection, cells were distributed into black 96-well plates (1 × 10^5 cells per well) and treated with chemokines (100 nM). After 45-minute incubation at 37 °C, coelenterazine H (10 μM) was added and donor emission (460 nm) and acceptor emission (535 nm) were immediately measured on a GloMax Discover (Promega) plate reader.
Similarly, to determine the concentration-dependent effects of ligand-induced ACKR3 mobilization to the cell membrane, cells were transfected with membrane-targeted mVenus (mVenus-CAAX) and ACKR3-NL (vide supra). […] Cells were subsequently incubated at 37 °C for 20 minutes after which the total light intensity was measured at 475 and 535 nm (both with a bandwidth of 30 nm) using the PHERAstar-FSX with a dual emission filter. […]
The resulting proximity between hACKR3-NLuc and was determined as bystander BRET. […] Expression of hACKR3-NLuc at the cell surface was determined by the measurement of bystander BRET. […]

For `COc1ccccc1CCNC(=O)C1CN(C2CCCCC2)CCC1NC(=O)c1cc(-c2ccc(F)cc2F)on1` (stereo not drawn) [VUF16840], in assay [1] (1 μM VUF16840), the “agonist mode screen, modulation of β-arrestin2 recruitment” value was “only modulated β-arrestin2 recruitment to hACKR3 and hCCR3”. Besides, in assay [1] (1 μM VUF16840 coincubated with respective endogenous agonist), the “antagonist-mode inhibition of any tested chemokine receptor” value is recorded as at most 50%. Besides, on hCXCR4, the “effect on β-arrestin2 recruitment to CXCR4” value was “did not affect”. For the same compound, the “effect on bystander BRET signal hACKR3-NLuc / membrane-targeted mNeonGreen (cell surface localization)” value at hACKR3-NLuc is “increased the bystander BRET signals”. Besides, the 50% effective concentration (EC50) at CCR3 (HEK293T, NanoBiT, read-out: EC50, activation of CCR3 (β-arrestin2 recruitment)) amounted to 200 nM. Besides, on CCR3 (β-arrestin2 recruitment), the “efficacy at CCR3 relative to endogenous agonist CCL13” value amounted to 1.4 fold.
